Test results from patent publication EP4439067A1, “METHOD FOR IDENTIFYING REACTIVE OXYGEN SPECIES” (Centre National de la Recherche Scientifique, priority 2023, dated 2024).

How the values were obtained:
[1] = system: HeLa cells; assay: Extracellular acidification rates (ECAR), Seahorse XF24 flux analyser; assay type: cell-based, human; conditions: 1 µM, both siCtrl- and siOPA1-transfected cells
Text: (§1) The inventors assessed oxygen consumption rates (OCR), a direct measure of oxidative phosphorylation activity, and extracellular acidification rates (ECAR), representative of glycolysis, since it accounts for approximately 80% of acidification (Wu et al., 2007, Xie et al., 2009), using the Seahorse XF24 flux analyser (Seahorse Bioscience Inc, North Billerica, MA, USA). Basal respiration was 38% lower in siOPA1-transfected HeLa cells than siCtrl-treated cells (Figure 1). Furthermore, ATP-linked respiration measured in the presence of oligomycin, which inhibits ATP synthase, was reduced by 40%. The maximal OCR measured in the presence of the protonophore FCCP, which uncouples oxidation and phosphorylation, was reduced by 58%. […] Indeed, citrate synthase activity and quantity and HSP60, VDAC, and TOM20 levels were unchanged (Figures 18 and 19).
Oxygen consumption rates (OCR) and extracellular acidification rates (ECAR) were measured using the XF24 Extracellular Flux Analyser (Seahorse Bioscience, North Billerica, MA). HeLa cells (15.103) transfected with siCtrl or siOPA1 were plated on XF24 microplates three days before OCR measurements. Dual-analyte sensor cartridges were soaked in XF Calibrant Solution (Seahorse Biosciences) in 24-well cell-culture microplates overnight at 37°C to hydrate. […]

[2] = system: HeLa cells; assay: Oxygen consumption rates (OCR), Seahorse XF24 flux analyser; assay type: cell-based, human; conditions: for effect on OCR / mitochondrial respiration: rotenone 1 µM plus antimycin A 1 µM, siOPA1- and siCtrl-transfected cells; for oxygen consumption due to mitochondrial respiration: shown by rotenone plus antimycin, both siOPA1- and siCtrl-transfected cells
Text: as §1
Oxygen consumption rates (OCR) and extracellular acidification rates (ECAR) were measured using the XF24 Extracellular Flux Analyser (Seahorse Bioscience, North Billerica, MA). HeLa cells (15.103) transfected with siCtrl or siOPA1 were plated on XF24 microplates three days before OCR measurements. Dual-analyte sensor cartridges were soaked in XF Calibrant Solution (Seahorse Biosciences) in 24-well cell-culture microplates overnight at 37°C to hydrate. Approximately one hour prior to experimentation, injection ports on the sensor cartridge were filled with oligomycin (1 µM), Carbonyl cyanide 4-(trifluoromethoxy) phenylhydrazone (FCCP) (1 µM), and rotenone (1 µM) plus antimycin A (1 µM). Plates were then loaded into the XF24 instrument for calibration. For measuring oxygen consumption, the DMEM growth media of HeLa cells was replaced by DMEM supplemented with NaCl (143 mM), Phenol Red (3 mg/ml), glucose (10 mM), glutamine (2 mM), and pyruvate (2 mM) at pH 7.4, and the plates maintained at 37°C 1 h prior to experimentation. Plates were then loaded into the Seahorse XF24 analyser following the manufacturer's instructions.

Molecule | effect of oligomycin injection on ECAR [1] | effect on OCR / mitochondrial respiration [2] | effect on OCR / mitochondrial respiration ([2]; listed as Rotenone) | oxygen consumption due to mitochondrial respiration [2] | effect on OCR / mitochondrial respiration ([2]; listed as antimycin)
CC[C@H]1/C=C/C=C/C[C@@H](C)[C@H](O)[C@@](C)(O)C(=O)[C@@H](C)[C@H](O)[C@@H](C)C(=O)[C@@H](C)[C@H](O)[C@@H](C)/C=C/C(=O)O[C@@H]2[C@H](C)[C@H](CC1)O[C@]1(CC[C@H](C)[C@H](C[C@@H](C)O)O1)[C@H]2C [oligomycin] | increased | – | – | – | –
C=C(C)[C@H]1Cc2c(ccc3c2O[C@@H]2COc4cc(OC)c(OC)cc4[C@@H]2C3=O)O1 [rotenone] | – | inhibited mitochondrial respiration | considerably decreased | more than 95% | –
antimycin A | – | inhibited mitochondrial respiration | – | more than 95% | considerably decreased
